Assay results taken from patent US6936610B2, “Heterocyclic derivatives” (AstraZeneca UK Limited, priority 1996, dated 2005).
Structures can show the parent of a compound that is named as a salt.

| Structure (SMILES) | melting point |
| --- | --- |
| Cc1cc(-c2ccc(C(=O)N3CCN(S(=O)(=O)c4ccc5cc(Br)ccc5c4)CC3)cc2)ccn1 [Example 8, 1-(6-bromonaphth-2-ylsulphonyl)-4-[4-(2-methyl-4-pyridyl)benzoyl]piperazine] | 204 to 205 °C |
| O=C(c1ccc(-c2ccncc2)cc1)N1CCN(S(=O)(=O)c2ccc3cc(Cl)ccc3c2)CC1 (as salt: trifluoroacetate) [Example 7, 1-(6-chloronaphth-2-ylsulphonyl)4-[4-(4-pyridyl)benzoyl]piperazine] | 175 to 176 °C |
| O=C(c1ccc(-c2ccnnc2)cc1)N1CCN(S(=O)(=O)c2ccc3cc(Br)ccc3c2)CC1 [Example 9, 1-(6-bromonaphth-2-ylsulphonyl)4-[4-(4-pyridazinyl)benzoyl]piperazine] | 128 to 130 °C |
